From ChEMBL document CHEMBL1201862, “PubChem BioAssay data set” (2004) come the findings set out here.

Common to all, as to assay: NCI anticancer screen, dose series, 48 h
For assay [1], the system named is COLO 205.
The test system of assay [2] is HCC 2998.
Assay [3] relates to HCT-116.
Assay [4] concerns HCT-15.
The test system of assay [5] is HOP-62.
Assay [6] has as its system IGROV-1.
For assay [7], the system named is MOLT-4.
The subject of assay [8] is Malme-3M.
Assay [9] concerns NCI/ADR-RES.
Assay [10] deals with OVCAR-3.
Assay [11] concerns OVCAR-4.
The subject of assay [12] is OVCAR-8.
For assay [13], the system named is RPMI-8226.
The subject of assay [14] is SF-268.
For assay [15], the system named is SK-MEL-28.
Assay [16] concerns SNB-19.
Assay [17] relates to SR.
The subject of assay [18] is U-251.
For assay [19], the system named is UO-31.

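Compound exposure: 48 hours, 5 concentrations, 96-well plates. At the GI50, growth is halved.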 The source made the active and inactive calls. No stated cut-off is given here; in the data, active = GI50 up to about 1.1 µM and inactive = higher. A value given as a limit tells only on which side of the number the result lay.

As to `CCN(CC)CC[S+]([O-])c1c2cc(OC)ccc2nc2ccc(OC)cc12` (configuration not stated), the GI50 is 1.88 µM (inactive) in assay [1]; 18.3 µM (inactive) in [2]; 2.19 µM (inactive) in assay [3]; 3.21 µM in assay [4]; 19.4 µM (inactive) in assay [5]; 2.54 µM (inactive) in [6]. In addition, the GI50 in assay [7] was 2.31 µM (inactive); in assay [8] it was 0.865 µM (active); in [9], 19.6 µM (inactive); in assay [10], 3.39 µM (inactive); in [11] it was 14.4 µM (inactive); in assay [12], 3.83 µM (inactive). Besides, the GI50 in [13] was 2.63 µM (inactive); in assay [14] it was 7.93 µM (inactive); in [15], 14.7 µM (inactive); in assay [16], 22.7 µM (inactive); in [17], 2.72 µM (inactive); in [18], 20 µM (inactive). The GI50 in assay [19] is 2.25 µM (inactive).
For the molecule `O=S(=O)(/C=C/C=C/[S+]([O-])c1ccccc1)c1ccccc1` (configuration not stated), the GI50 was 1.76 µM (inactive) in assay [1]; > 10 µM (inactive) in [2]; 1.38 µM (inactive) in assay [3]; 2.05 µM in [4]; > 10 µM (inactive) in assay [5]; > 5.41 µM (inactive) in assay [6]. For the same molecule, the GI50 is 1.42 µM (inactive) in assay [7]; 1.98 µM (inactive) in assay [8]; 2.12 µM (inactive) in [9]; 1.53 µM (inactive) in [10]; 1.59 µM (inactive) in assay [11]; 1.7 µM (inactive) in assay [12]. The GI50 is 0.875 µM (active) in assay [13]; 3.13 µM (inactive) in assay [14]; 1.98 µM (inactive) in assay [15]; > 10 µM (inactive) in assay [16]; 0.877 µM (active) in assay [17]; > 10 µM (inactive) in [18]. Further, in [19], the GI50 is 2.27 µM (inactive).
For `CC(=O)c1c2c(cc3c1CC1(C3)Cc3cc4c(c(C(=O)O)c3C1)CCCC4)CCCC2.CC(N)c1ccccc1` (configuration not stated), the GI50 in assay [1] was 27.9 µM (inactive); in [2], 34.5 µM (inactive); in assay [3] it was 25.1 µM (inactive); in assay [4], 33.7 µM; in [5], 21.6 µM (inactive); in assay [6] it was 34.8 µM (inactive). Moreover, the GI50 in assay [7] is 17.6 µM (inactive); in assay [8] it was 33.4 µM (inactive); in assay [9], 40.1 µM (inactive); in assay [10] it was 23.6 µM (inactive); in assay [11], 37 µM (inactive); in [12], 28.2 µM (inactive). The GI50 in assay [13] was 31.6 µM (inactive); in assay [14] it was 38.7 µM (inactive); in assay [15] it was 33.4 µM (inactive); in [16], 46.5 µM (inactive); in assay [17] it was 20.3 µM (inactive); in assay [18], 26.1 µM (inactive). For the same molecule, the GI50 in assay [19] is 18.6 µM (inactive).
Regarding `COc1ccc(/C=C(/c2ccccc2)c2c(C)cc(C)c(/C(=C\c3ccc(OC)cc3)c3ccccc3)c2/N=N/c2cc(C)cc(C)c2)cc1`, the GI50 is 8.04 µM (inactive) in [1]; 8.34 µM (inactive) in assay [2]; 10 µM (inactive) in assay [3]; > 66.1 µM in [4]; 20.9 µM (inactive) in assay [5]; 14.4 µM (inactive) in [6]. Besides, the GI50 is 15.7 µM (inactive) in assay [7]; 17.9 µM (inactive) in [8]; > 100 µM (inactive) in assay [9]; 4.1 µM (inactive) in assay [10]; 20.1 µM (inactive) in [11]; 17.9 µM (inactive) in [12]. The GI50 in [13] was 6.07 µM (inactive); in assay [14], 39.9 µM (inactive); in assay [15], > 100 µM (inactive); in assay [16], 15.5 µM (inactive); in assay [17], 63.5 µM (inactive); in [18], 7.33 µM (inactive). In addition, the GI50 in assay [19] is > 67.5 µM (inactive).
In the case of `COc1ccc(/C=C2\CCC(CNc3cc(C)on3)C2=O)cc1` (configuration not stated), the GI50 is > 100 µM (inactive) in assay [1]; > 44.9 µM (inactive) in assay [2]; > 100 µM (inactive) in assay [3]; > 100 µM in assay [4]; 47.4 µM (inactive) in assay [5]; 98.2 µM (inactive) in assay [6]. The GI50 in assay [7] was > 100 µM (inactive); in [8] it was > 100 µM (inactive); in assay [9], > 54 µM (inactive); in assay [10], > 100 µM (inactive); in [11], > 100 µM (inactive); in assay [12], > 100 µM (inactive). The GI50 in assay [13] was > 100 µM (inactive); in assay [14], > 70 µM (inactive); in [15], > 100 µM (inactive); in assay [16] it was 64.4 µM (inactive); in assay [17], > 100 µM (inactive); in [18] it was > 60.1 µM (inactive). Moreover, the GI50 in assay [19] is > 93.1 µM (inactive).
As to `CC(=O)OCC1OC(n2c3c(cc(C#N)c2=O)CCCCCC3)C(OC(C)=O)C(OC(C)=O)C1OC(C)=O` (configuration not stated), the GI50 in assay [1] was > 100 µM (inactive); in assay [2], > 100 µM (inactive); in assay [3], > 100 µM (inactive); in assay [4] it was > 100 µM; in assay [5] it was > 100 µM (inactive); in assay [6], > 100 µM (inactive). The GI50 in [7], in assay [8], in [9], in assay [10], in assay [11] and in assay [12] was > 100 µM (inactive) throughout. In addition, the GI50 is > 100 µM (inactive) in assay [13]; > 100 µM (inactive) in assay [14]; > 100 µM (inactive) in assay [15]; > 100 µM (inactive) in [16]; 96.6 µM (inactive) in assay [17]; > 100 µM (inactive) in [18]. In addition, the GI50 in assay [19] was > 100 µM (inactive).
With `C=C1CN2CC(=C)CN(C1)CS(=O)(=O)N1CC(=C)CN(CC(=C)C1)S(=O)(=O)N1CC(=C)CN(CC(=C)C1)S(=O)(=O)C2`, the GI50 in assay [1] was 34 µM (inactive); in assay [2] it was 17.7 µM (inactive); in assay [3], 51.3 µM (inactive); in [4], > 100 µM; in assay [5], 20.6 µM (inactive); in assay [6] it was 59.8 µM (inactive). Further, the GI50 in assay [7] was 67.1 µM (inactive); in [8] it was 23.3 µM (inactive); in [9], > 100 µM (inactive); in assay [10] it was > 100 µM (inactive); in assay [11], 34.3 µM (inactive); in assay [12], 40 µM (inactive). Further, the GI50 in [13] is 39.4 µM (inactive); in assay [14], 25.6 µM (inactive); in assay [15], 20.3 µM (inactive); in assay [16] it was 40.7 µM (inactive); in assay [17] it was > 100 µM (inactive); in [18], 32.7 µM (inactive). Further, the GI50 in assay [19] was 42 µM (inactive).
Turning to `CCOC(=O)c1cc(-n2nnc3ccccc32)cn1C`, the GI50 was > 10 µM (inactive) in assay [1]; > 10 µM (inactive) in [2]; > 10 µM (inactive) in [3]; > 10 µM in [4]; > 10 µM (inactive) in assay [5]; > 10 µM (inactive) in assay [6]. The GI50 in assay [7], in assay [8], in assay [9], in [10], in [11] and in [12] was > 10 µM (inactive) throughout. The GI50 in assay [13] is > 10 µM (inactive); in [14], > 10 µM (inactive); in [15], > 10 µM (inactive); in [16], > 10 µM (inactive); in [17], 1.32 µM (inactive); in [18] it was > 10 µM (inactive). The GI50 in assay [19] was > 10 µM (inactive).
